pIC50: −log10 of the molar value.
Columns and labels:
hFP = target: T1, hFP (Homo sapiens, UniProt P43088); assay: Radioligand Binding Assay (competition with (3H) PGF2 on hFP membranes); details: relative to PGF2α, hFP membranes from transfected COS-7 cells
T1 construct: expressed in transfected cells; host or cells: COS-7 cells, transient transfection with LipofectAMINE; membranes prepared
Description: IC50 of a PGF can be determined relative to PGF2α using the Radioligand Binding Assay. As a control, the IC50 for PGF2α itself should be no lower than 1.0 nM and no higher than 5.0 nM.
In this assay, COS-7 cells are transiently transfected with the hFP recombinant plasmid using LipofectAMINE Reagent. Forty-eight hours later, the tranfected cells are washed with Hank's Balanced Salt Solution (HBSS, without CaCl2, MgCl2, MgSO4, or phenol red). The cells are detached with versene, and HBSS is added. The mixture is centrifuged at 200 g for 10 minutes, at 4° C. to pellet the cells. The pellet is resuspended in Phosphate-Buffered Saline-EDTA buffer (PBS; 1 mM EDTA; pH 7.4; 4° C.). The cells are disrupted by nitrogen cavitation (Parr model 4639), at 800 psi, for 15 minutes at 4° C. The mixture is centrifuged at 1000 g for 10 minutes at 4° C. The supernatant is centrifuged at 100,000 g for 60 minutes at 4° C. The pellet is resuspended to 1 mg protein/mL TME buffer (50 mM Tris; 10 mM MgCl2; 1 mM EDTA; pH 6.0; 4° C.) based on protein levels measured using the Pierce BCA Protein Assay kit. The homogenate is mixed for 10 seconds using a Kinematica POLYTRON® (available from KINEMATICA AG, Luzernerstrassel47A CH-6014 Littau, Switzerland). The membrane preparations are then stored at −80° C., until thawed for assay use.
The receptor competition binding assays are developed in a 96 well format. Each well contains […] of hFP membrane, 5 nM (3H) PGF2, and the various competing compounds in a total volume of […]. The plates are incubated at 23° C. for 1 hour. The incubation is terminated by rapid filtration using the Packard Filtermate 196 harvester through Packard UNIFILTER® GF/B filters (available from Packard Instrument Co., Inc. of Downers Grove Ill.) pre-wetted with TME buffer. The filter is washed four times with TME buffer. […] The plates are read on a Packard TOPCOUNT® Microplate Scintillation Counter (also available from Packard Instrument Co., Inc.)

C3H mice = assay: Telogen Conversion Assay (topical, skin colour grade, hair growth); type: in vivo; details: for Grades (average animal score): day 26, visual grade 0 to 4 of skin colour (Table 4)
Description: PGF's are tested for their potential to grow hair using the Telogen Conversion Assay. The Telogen Conversion Assay measures the potential of a PGF to convert mice in the resting stage of the hair growth cycle (“telogen”), to the growth stage of the hair growth cycle (“anagen”).
Without intending to be limited by theory, there are three principal phases of the hair growth cycle: anagen, catagen, and telogen. It is believed that there is a longer telogen period in C3H mice (Harlan Sprague Dawley, Inc., Indianapolis, Ind.) from approximately 40 days of age until about 75 days of age, when hair growth is synchronized. It is believed that after 75 days of age, hair growth is no longer synchronized. Wherein about 40 day-old mice with dark fur (brown or black) are used in hair growth experiments, melanogenesis occurs along with hair (fur) growth wherein the topical application of hair growth inducers are evaluated. The Telogen Conversion Assay herein is used to screen PGF's for potential hair growth by measuring melanogenesis.
Three groups of 44 day-old C3H mice are used: a vehicle control group, a positive control group, and a test PGF group, wherein the test PGF group is administered a PGF used in the method of this invention. […] Day 1 is the first day of treatment. Typical dosage concentrations are set forth in Table 3, however the skilled artisan will readily understand that such concentrations may be modified.
The mice are treated topically Monday through Friday on their lower back (base of tail to the lower rib). A pipettor and tip are used to deliver 400 μL to each mouse's back. The 400 μL application is applied slowly while moving hair on the mouse to allow the application to reach the skin.
While each treatment is being applied to the mouse topically, a visual grade of from 0 to 4 will be given to the skin color in the application area of each animal. As a mouse converts from telogen to anagen, its skin color will become more bluish-black.

EP1 receptor = target: T2, EP1 receptor (Homo sapiens, UniProt P34995); assay: Receptor selectivity statement (EP1 activation); details: stated without method; said to result in the side effect of pain
T2 sequence (P34995 1-402): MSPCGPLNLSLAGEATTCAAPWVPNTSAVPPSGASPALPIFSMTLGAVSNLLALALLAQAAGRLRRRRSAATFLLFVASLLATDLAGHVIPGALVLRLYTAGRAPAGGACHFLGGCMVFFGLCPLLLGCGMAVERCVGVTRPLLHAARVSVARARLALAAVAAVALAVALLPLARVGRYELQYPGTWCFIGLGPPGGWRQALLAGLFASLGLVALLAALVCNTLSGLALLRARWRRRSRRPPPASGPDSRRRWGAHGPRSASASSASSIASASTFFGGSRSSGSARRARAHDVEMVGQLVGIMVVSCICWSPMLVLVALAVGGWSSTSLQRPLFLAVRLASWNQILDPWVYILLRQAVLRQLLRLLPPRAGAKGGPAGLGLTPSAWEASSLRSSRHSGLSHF

T1 sequence (P43088 whole entry): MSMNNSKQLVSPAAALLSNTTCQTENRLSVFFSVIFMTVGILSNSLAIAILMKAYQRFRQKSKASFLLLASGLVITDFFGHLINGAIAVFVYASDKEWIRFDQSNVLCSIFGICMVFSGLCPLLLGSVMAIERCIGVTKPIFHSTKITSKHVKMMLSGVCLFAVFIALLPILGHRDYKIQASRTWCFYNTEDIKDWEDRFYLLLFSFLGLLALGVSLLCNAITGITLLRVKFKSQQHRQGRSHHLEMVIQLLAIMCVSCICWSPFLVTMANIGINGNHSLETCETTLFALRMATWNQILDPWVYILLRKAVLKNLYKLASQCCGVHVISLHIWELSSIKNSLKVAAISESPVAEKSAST

Molecule | pIC50 (hFP) | hair growth / activity (C3H mice; 0.01% topical) | Grades (average animal score) (C3H mice; 0.01%) | hair growth / activity (C3H mice; 0.1% topical) | Grades (average animal score) (C3H mice; 0.1%) | further results
O=C(O)CCCCCC[C@@H]1[C@@H](CCC(O)c2nc3ccccc3s2)[C@H](O)C[C@@H]1O (stereo partly drawn) [13,14-dihydro-15-(2-benzathiozolyl)pentanor Prostaglandin F1α] | 7.35 |  |  |  |  | hair growth (C3H mice; concentration not given): grew hair
O=C(O)CCCCCC[C@@H]1[C@@H](CCC(O)C#Cc2ccccc2F)[C@H](O)C[C@@H]1O (some centres unmarked) [Example 3-1] | 7.72 |  |  |  |  | 
O=C(O)CCCCCC[C@@H]1[C@@H](CCC(O)c2cc3ccccc3s2)[C@H](O)C[C@@H]1O (some centres unmarked) [Example 3-2] | 7.57 |  |  |  |  | 
COC(=O)CCC/C=C\C[C@@H]1[C@@H](/C=C/[C@@H](O)COc2cccc(C(F)(F)F)c2)[C@H](O)C[C@@H]1O [Fluprostenol Methyl Ester] |  | grew hair | 3.9 | grew hair | 2.6 | 
N[C@@H](Cc1cc(I)c(Oc2ccc(O)c(I)c2)c(I)c1)C(=O)O [T3 compound, 3,5,3′-triiodothyronine, reference compound] |  | grew hair |  |  |  | 
Latanoprost [reference compound] |  | active | 0.71 | active | 2.9 | activation of EP1 receptor (nonselective) (EP1 receptor): activates the EP1 receptor

Reference: US8906962B2, “Compositions and methods for treating hair loss using non-naturally occurring prostaglandins” (Duke University, priority 2000, dated 2014)
